In ChEMBL document CHEMBL3885881, “DrugMatrix”:

Species: Rattus norvegicus
Assay: DrugMatrix - Regimen: Daily Repeat
Type: toxicity, organism-based, Sprague-Dawley
Design: regimen Daily Repeat, gender Male, age 6-8 weeks
Settings: in vivo, po, route oral GAVAGE, vehicle 60 % PEG400; for ABSOLUTE BASOPHIL / ABSOLUTE EOSINOPHIL / ABSOLUTE LYMPHOCYTE / ABSOLUTE MONOCYTE / ABSOLUTE SEGMENTED NEUTROPHIL / BASOPHIL / EOSINOPHIL / ERYTHROCYTE COUNT / HEMATOCRIT / HEMOGLOBIN / LEUKOCYTE COUNT / LYMPHOCYTE / MEAN CORPUSCULAR HEMOGLOBIN / MEAN CORPUSCULAR HEMOGLOBIN CONCENTRATION / MEAN CORPUSCULAR VOLUME / MONOCYTE / NEUTROPHIL / NUCLEATED RED BLOOD CELLS / PLATELET COUNT: tissue Blood; for ALANINE AMINOTRANSFERASE / ALBUMIN / ALKALINE PHOSPHATASE / ASPARTATE AMINOTRANSFERASE / BLOOD UREA NITROGEN / CARBON DIOXIDE / CHLORIDE / CHOLESTEROL / CREATINE PHOSPHOKINASE / CREATININE / GLUCOSE / LACTATE DEHYDROGENASE / LIPASE / PHOSPHORUS / POTASSIUM / SODIUM / TOTAL BILIRUBIN / TOTAL PROTEIN / URIC ACID: tissue Plasma
[1] = 0 mg/kg, 72 h, dose level Control, time 3 day
[2] = 0 mg/kg, 120 h, dose level Control, time 5 day
[3] = 0.001 mg/kg, 72 h, dose level Low, time 3 day

**Q.** What does the source list for `N[C@@H](Cc1cc(I)c(Oc2ccc(O)c(I)c2)c(I)c1)C(=O)O` [LIOTHYRONINE]?
**A.** ABSOLUTE BASOPHIL [1]: 0 CELLS/uL; ABSOLUTE EOSINOPHIL [1]: 48.67 CELLS/uL; ABSOLUTE LYMPHOCYTE [1]: 11723.33 CELLS/uL; ABSOLUTE MONOCYTE [1]: 132.67 CELLS/uL; ABSOLUTE SEGMENTED NEUTROPHIL [1]: 1362 CELLS/uL; BASOPHIL [1]: 0%; EOSINOPHIL [1]: 0.33%; ERYTHROCYTE COUNT [1]: 5.61 x10E6/uL; HEMATOCRIT [1]: 33.53%; HEMOGLOBIN [1]: 13.13 G/DL; LEUKOCYTE COUNT [1]: 13.27 x10E3/uL; LYMPHOCYTE [1]: 88.33%; MEAN CORPUSCULAR HEMOGLOBIN [1]: 23.4 pg; MEAN CORPUSCULAR HEMOGLOBIN CONCENTRATION [1]: 39.17 G/DL; MEAN CORPUSCULAR VOLUME [1]: 59.8 fL; MONOCYTE [1]: 1%; NEUTROPHIL [1]: 10.33%; NUCLEATED RED BLOOD CELLS [1]: 0.67 /100WBC; PLATELET COUNT [1]: 967.33 x10E3/uL; ALANINE AMINOTRANSFERASE [1]: 60.33 u/L; ALBUMIN [1]: 4.3 G/DL; ALKALINE PHOSPHATASE [1]: 403.33 u/L; ASPARTATE AMINOTRANSFERASE [1]: 87 u/L; BLOOD UREA NITROGEN [1]: 14.67 mg/dL; CARBON DIOXIDE [1]: 31 mmol/L; CHLORIDE [1]: 103 MEQ/L; CHOLESTEROL [1]: 82.33 mg/dL; CREATINE PHOSPHOKINASE [1]: 376.33 u/L; CREATININE [1]: 0.17 mg/dL; GLUCOSE [1]: 146.33 mg/dL; LACTATE DEHYDROGENASE [1]: 196.33 u/L; LIPASE [1]: 12.33 u/L; PHOSPHORUS [1]: 11.43 mg/dL; POTASSIUM [1]: 6.79 MEQ/L; SODIUM [1]: 147.27 MEQ/L; TOTAL BILIRUBIN [1]: 0.2 mg/dL; TOTAL PROTEIN [1]: 6.13 G/DL; URIC ACID [1]: 1.33 mg/dL; ABSOLUTE BASOPHIL [2]: 0 CELLS/uL; ABSOLUTE EOSINOPHIL [2]: 19 CELLS/uL; ABSOLUTE LYMPHOCYTE [2]: 4849 CELLS/uL; ABSOLUTE MONOCYTE [2]: 38 CELLS/uL; ABSOLUTE SEGMENTED NEUTROPHIL [2]: 660.67 CELLS/uL; BASOPHIL [2]: 0%; EOSINOPHIL [2]: 0.33%; ERYTHROCYTE COUNT [2]: 4.95 x10E6/uL; HEMATOCRIT [2]: 29.67%; HEMOGLOBIN [2]: 11.53 G/DL; LEUKOCYTE COUNT [2]: 5.57 x10E3/uL; LYMPHOCYTE [2]: 87.67%; MEAN CORPUSCULAR HEMOGLOBIN [2]: 23.33 pg; MEAN CORPUSCULAR HEMOGLOBIN CONCENTRATION [2]: 38.9 G/DL; MEAN CORPUSCULAR VOLUME [2]: 59.87 fL; MONOCYTE [2]: 0.67%; NEUTROPHIL [2]: 11.33%; NUCLEATED RED BLOOD CELLS [2]: 0.33 /100WBC; PLATELET COUNT [2]: 653.33 x10E3/uL; ALANINE AMINOTRANSFERASE [2]: 48.33 u/L; ALBUMIN [2]: 4.27 G/DL; ALKALINE PHOSPHATASE [2]: 396 u/L; ASPARTATE AMINOTRANSFERASE [2]: 75.67 u/L; BLOOD UREA NITROGEN [2]: 15 mg/dL; CARBON DIOXIDE [2]: 31.33 mmol/L; CHLORIDE [2]: 103 MEQ/L; CHOLESTEROL [2]: 76.33 mg/dL; CREATINE PHOSPHOKINASE [2]: 182.67 u/L; CREATININE [2]: 0.2 mg/dL; GLUCOSE [2]: 181 mg/dL; LACTATE DEHYDROGENASE [2]: 88 u/L; LIPASE [2]: 8.33 u/L; PHOSPHORUS [2]: 12.33 mg/dL; POTASSIUM [2]: 6.09 MEQ/L; SODIUM [2]: 146.47 MEQ/L; TOTAL BILIRUBIN [2]: 0.17 mg/dL; TOTAL PROTEIN [2]: 6.3 G/DL; URIC ACID [2]: 1.43 mg/dL; ABSOLUTE BASOPHIL [3]: 0 CELLS/uL; ABSOLUTE EOSINOPHIL [3]: 72.67 CELLS/uL; ABSOLUTE LYMPHOCYTE [3]: 12680.33 CELLS/uL; ABSOLUTE MONOCYTE [3]: 379.67 CELLS/uL; ABSOLUTE SEGMENTED NEUTROPHIL [3]: 1067.33 CELLS/uL; BASOPHIL [3]: 0%; EOSINOPHIL [3]: 0.67%; ERYTHROCYTE COUNT [3]: 5.31 x10E6/uL; HEMATOCRIT [3]: 34.1%; HEMOGLOBIN [3]: 13.1 G/DL; LEUKOCYTE COUNT [3]: 14.2 x10E3/uL; LYMPHOCYTE [3]: 89.33%; MEAN CORPUSCULAR HEMOGLOBIN [3]: 24.67 pg; MEAN CORPUSCULAR HEMOGLOBIN CONCENTRATION [3]: 38.47 G/DL; MEAN CORPUSCULAR VOLUME [3]: 64.17 fL; MONOCYTE [3]: 2.33%; NEUTROPHIL [3]: 7.67%; NUCLEATED RED BLOOD CELLS [3]: 0 /100WBC; PLATELET COUNT [3]: 1001 x10E3/uL; ALANINE AMINOTRANSFERASE [3]: 51 u/L; ALBUMIN [3]: 4.37 G/DL; ALKALINE PHOSPHATASE [3]: 321 u/L; ASPARTATE AMINOTRANSFERASE [3]: 82.33 u/L; BLOOD UREA NITROGEN [3]: 17.33 mg/dL; CARBON DIOXIDE [3]: 29.67 mmol/L; CHLORIDE [3]: 105.33 MEQ/L; CHOLESTEROL [3]: 79.67 mg/dL; CREATINE PHOSPHOKINASE [3]: 347 u/L; CREATININE [3]: 0.16 mg/dL; GLUCOSE [3]: 144 mg/dL; LACTATE DEHYDROGENASE [3]: 167.33 u/L; LIPASE [3]: 13 u/L; PHOSPHORUS [3]: 12.4 mg/dL; POTASSIUM [3]: 6.56 MEQ/L; SODIUM [3]: 146.23 MEQ/L; TOTAL BILIRUBIN [3]: 0.2 mg/dL; TOTAL PROTEIN [3]: 6.03 G/DL
